Measurements published in article PMC4357015, “Structure, Function and Inhibition of the Phosphoethanolamine Methyltransferases of the Human Malaria Parasites Plasmodium vivax and Plasmodium knowlesi” (Scientific Reports, 2015).

What was measured:
[1] = target: T1, PvPMT (Plasmodium vivax, UniProt A5K867); test: radiometric PMT transmethylation assay, inhibition of PvPMT; assay type: biochemical
T1 sequence (A5K867 1-264): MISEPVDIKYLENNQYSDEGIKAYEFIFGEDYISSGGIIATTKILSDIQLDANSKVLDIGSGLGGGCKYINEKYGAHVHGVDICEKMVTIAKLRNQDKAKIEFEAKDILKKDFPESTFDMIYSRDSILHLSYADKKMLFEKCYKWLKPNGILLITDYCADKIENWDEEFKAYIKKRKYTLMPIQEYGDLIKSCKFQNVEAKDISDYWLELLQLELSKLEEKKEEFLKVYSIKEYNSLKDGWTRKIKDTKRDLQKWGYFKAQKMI
Experimental: (§1) Figure 3 Amodiaquine (AQ) and NSC158011 inhibit the activity of PvPMT and PkPMT. Enzyme inhibition assays with different concentrations of Amodiaquine (AQ), NSC158011 and Chloroquine (CQ) were carried out at constant P-Etn (2 mM) and SAM (1.5 mM) concentrations. The activity in the absence of any drug was taken as 100% and % enzyme activity was calculated in the presence of different drug concentrations (100, 500, 1000 μM). To determine the concentration that results in 50% inhibition of enzyme activity (IC50), the data were fitted to a non-linear regression analysis in the following equation Y = 100/(1 + ([X]/IC50)), where Y is % enzyme activity and X is drug concentration using Graph pad software.
(§2) For enzyme kinetics studies recombinant histidine-tagged proteins were expressed using 1 mM IPTG for 4 h, purified using Ni-affinity purification and dialyzed. As expected, purified proteins migrated in SDS-PAGE gels at approximately 31 kDa. The purified proteins were stored in HEPES-KOH buffer (pH 7.4) at 4°C and were assayed within a month of purification. During this time, the integrity of the protein was assessed by SDS-PAGE. The kinetic properties of enzymes were assessed using radiometric assay wherein incorporation of radioactive labeled methyl donor (100nCi [methyl-^14C] SAM, Perkin elmer NEC363010UC) or (200nCi [methyl-^3H] SAM, Perkin Elmer NET155H250UC) was measured. […]

[2] = target: T2, PkPMT (Plasmodium knowlesi, UniProt A0A384KJX3); test: radiometric PMT transmethylation assay, inhibition of PkPMT; assay type: biochemical
T2 sequence (A0A384KJX3 1-264): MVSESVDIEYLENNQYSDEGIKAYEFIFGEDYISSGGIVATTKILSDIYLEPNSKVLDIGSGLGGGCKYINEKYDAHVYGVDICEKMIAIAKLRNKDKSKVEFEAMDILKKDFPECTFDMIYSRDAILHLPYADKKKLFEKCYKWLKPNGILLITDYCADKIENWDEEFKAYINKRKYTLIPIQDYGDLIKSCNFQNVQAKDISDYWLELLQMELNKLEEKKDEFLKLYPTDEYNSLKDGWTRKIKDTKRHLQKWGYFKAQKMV
Experimental: as §1, §2

[3] = target: T1, PvPMT; test: kinetic parameters of PvPMT, radiometric assay; assay type: biochemical; conditions: varied substrate, other constant (SAM 1.5 mM or P-Etn 2.0 mM)
Experimental: (§3) Figure 2 Analysis of kinetic parameters of P.vivax (top panel) and P. knowlesi PMT enzymes (bottom panel). The Km values for phosphoethanolamine (P-Etn) was determined under standard assay conditions with varying concentrations of P-Eth (0–800 μM) and at constant S-adenosylmethionine (SAM) concentration of 1.5 mM. The Km values for SAM were determined under standard assay conditions with varying concentrations of SAM (0–600 μM) and at constant P-Etn concentration of 2.0 mM. All data were fitted to the Michaelis-Menten equation, v = (kcat [Et][S])/(Km + [S]) using Graph pad software.
(§4) For enzyme kinetics studies recombinant histidine-tagged proteins were expressed using 1 mM IPTG for 4 h, purified using Ni-affinity purification and dialyzed. As expected, purified proteins migrated in SDS-PAGE gels at approximately 31 kDa. The purified proteins were stored in HEPES-KOH buffer (pH 7.4) at 4°C and were assayed within a month of purification. During this time, the integrity of the protein was assessed by SDS-PAGE. The kinetic properties of enzymes were assessed using radiometric assay wherein incorporation of radioactive labeled methyl donor (100nCi [methyl-^14C] SAM, Perkin elmer NEC363010UC) or (200nCi [methyl-^3H] SAM, Perkin Elmer NET155H250UC) was measured. The enzymatic assay conditions were carried out in 100 μl volume containing 0.1 M Hepes, KOH (pH8.6), 2 mM Na2EDTA and10% glycerol. For NSC158011 related studies, 10% DMSO was added to the reaction mixture. Purified enzyme (322 nM) was used in each reaction and the reactions were incubated at 37°C for 30 minutes, thereafter the reaction was terminated using 1 ml cold water. Afterwards, the product was purified by batch purification using AG (H+ resin) (Biorad # 142-1451) using the protocol provided by the manufacturer. The product was eluted from resin using 1.5 ml of 0.1 N HCl and total radioactivity was measured using the scintillation cocktail (Biosafe II).
(§5) To determine the Km value for P-Eth, enzymatic reactions were carried out with 0-0.8 mM of P-Eth at constant 1.5 mM SAM. Similarly Km value for SAM was carried with 0–0.6 mM SAM at constant 2 mM P-Ethanolamine (P-Etn). The inhibition of PvPMT and PkPMT by AQ, CQ and NSC158011were also examined using the same radiometric PMT transmethylation assay. Enzyme activity was evaluated at 0, 100, 500 and 1000 μM of the inhibitor at a fixed concentration of P-Eth (2 mM) and SAM (1.5 mM). To calculate IC50 the data was fitted to non-linear regression analysis in the following equation Y = 100/(1 + ([X]/IC50)), where Y is % enzyme activity and X is inhibitor concentration using Graph pad software.

[4] = target: T2, PkPMT; test: kinetic parameters of PkPMT, radiometric assay; assay type: biochemical; conditions: varied substrate, other constant (SAM 1.5 mM or P-Etn 2.0 mM)
Experimental: as §3, §4, §5

[5] = substrate: C[S+](CC[C@H](N)C(=O)[O-])C[C@H]1O[C@@H](n2cnc3c(N)ncnc32)[C@H](O)[C@@H]1O; test: kinetic parameters of PkPMT, radiometric assay; assay type: biochemical, Plasmodium knowlesi; conditions: other: PkPMT; varied substrate, other constant (SAM 1.5 mM or P-Etn 2.0 mM); 37.0 °C
Experimental: as §3, §4
(§6) To determine the Km value for P-Eth, enzymatic reactions were carried out with 0-0.8 mM of P-Eth at constant 1.5 mM SAM. […]

[6] = substrate: C[S+](CC[C@H](N)C(=O)[O-])C[C@H]1O[C@@H](n2cnc3c(N)ncnc32)[C@H](O)[C@@H]1O; test: kinetic parameters of PvPMT, radiometric assay; assay type: biochemical, Plasmodium vivax; conditions: other: PvPMT; varied substrate, other constant (SAM 1.5 mM or P-Etn 2.0 mM); 37.0 °C
Experimental: as §3, §4, §6

For `CCN(CC)CCCC(C)Nc1ccnc2cc(Cl)ccc12` (stereo not shown) [CQ, chloroquine], the IC50 [1] was 146 µM and the IC50 [2] was 987 µM.

Work on `NCCOP(=O)(O)O` [P-Etn, phosphoethanolamine] yielded a Kcat [3] of 0.00083 ± 0.00017 s⁻¹, a Km [3] of 210 ± 70 µM and a Vmax [3] of 18.67 ± 2.93 nmolmin^−1 mg^−1Protein. It also gave a Kcat [4] of 0.00433 ± 0.00033 s⁻¹, a Km [4] of 100 ± 30 µM and a Vmax [4] of 86.01 ± 8.35 nmolmin^−1 mg^−1Protein.

For `C[S+](CC[C@H](N)C(=O)[O-])C[C@H]1O[C@@H](n2cnc3c(N)ncnc32)[C@H](O)[C@@H]1O` (stereo partly shown) [SAM, S-adenosylmethionine], the Vmax [3] was 12.62 ± 0.95 nmolmin^−1 mg^−1Protein and the Vmax [4] was 119.7 ± 15.41 nmolmin^−1 mg^−1Protein.

B1: PkPMT (Plasmodium knowlesi strain H) (protein)
chain: T2 sequence (A0A384KJX3 1-264)
In the case of B1, the Km [5] is reported as 270 ± 90 µM, the kcat [5] is reported as 0.00617 ± 0.0005 s⁻¹ and the kcat/Km [5] is reported as 22.8 M⁻¹ s⁻¹.

B2: PvPMT (Plasmodium vivax Sal-1) (protein)
chain: T1 sequence (A5K867 1-264)
With B2 the Km [6] was 230 ± 70 µM, the kcat [6] was 0.000667 ± 0.000333 s⁻¹ and the kcat/Km [6] was 2.83 M⁻¹ s⁻¹.
